In patent US8389573B2, “Glycyrrhetinic acid derivatives” (Wellington Laboratories Inc., priority 2006, dated 2013):

How the values were obtained:
[1] = test system: LNCaP cells; assay: Western blot analysis and DNA fragmentation assay in LNCaP cells; assay type: cell-based, human
Procedure: (§1) Cell Proliferation and DNA Fragmentation Assays: LNCaP prostate cancer cells (2×10^4 per well) were added to 12-well plates and allowed to attach for 24 hr. The medium was then changed to DMEM/Ham's F-12 media containing 2.5% charcoal-stripped FBS, and either vehicle (DMSO) or the indicated C-DIMs were added. Fresh medium and indicated compounds were added every 48 hr, and cells were then trypsinized and counted after 2, 4, and 6 days using a Coulter Z1 cell counter (Beckman Coulter, Fullerton, Calif.). Each experiment was done in triplicate, and results are expressed as means±S.E. for each set of three experiments. The DNA fragmentation assay was performed using a BioVision Apoptotic DNA ladder extraction kit (BioVision, Mountain View, Calif.) according to the manufacturer's protocol.
Western Blot Analysis: Cells were seeded in DMEM:Ham's F-12 media containing 2.5% charcoal-stripped FBS for 24 hr and then treated with either the vehicle (DMSO) or the indicated compounds. Cells were collected by scraping in 150 μl high salt lysis buffer (50 mM HEPES, 0.5 M NaCl, 1.5 mM MgCl2, 1 mM EGTA, 10% (v/v) glycerol, 1% (v/v) Triton-X-100 and 5 μL/ml of Protease Inhibitor Cocktail (Sigma). The lysates were incubated on ice for 1 hr with intermittent vortexing followed by centrifugation at 20,000 g for 10 min at 4° C. Before electrophoresis, samples were boiled for 3 min at 100° C.; the amount of protein was determined and 60 μg protein applied per lane. Samples were subjected to SDS-PAGE on 10% gel at 120 V for 3 to 4 hr. Proteins were transferred on to polyvinylidene difluoride membrane (PVDF; Bio-Rad, Hercules, Calif.) at 0.9 amp for 90 min at 4° C. in 1× transfer buffer (48 mM Tris-HCl, 39 mM glycine, and 0.025% SDS). The membranes were blocked for 30 min with 5% TBST-Blotto (10 mM Tris-HCl, 150 mM NaCl (pH 8.0), 0.05% Triton X-100 and 5% non-fat dry milk) and incubated in fresh 5% TBST-Blotto with primary antibody overnight with gentle shaking at 4° C. After washing with TBST for 10 min, the PVDF membrane was incubated with secondary antibody (1:5000) in 5% TBST-Blotto for 2-3 hr. The membrane was washed with TBST for 10 min and incubated with 10 ml of chemiluminescence substrate (PerkinElmer Life Sciences) for 1.0 min and exposed to ImageTeK-H medical imaging film (Eastman American X-ray Supply, Inc.).

[2] = test system: AR mRNA; assay: Real-time PCR of AR mRNA in LNCaP cells; assay type: cell-based, human
Procedure: Real-Time PCR: Total RNA was isolated using the RNeasy Protect Mini kit (QIAGEN, Valencia, Calif.) according to the manufacturer's protocol. RNA was eluted with 30 μl of RNasefree water and stored at −80° C. RNA was reverse transcribed using Superscript II reverse transcriptase (Invitrogen) according to the manufacturer's protocol. cDNA was prepared from the LNCaP cell line using a combination of oligodeoxythymidylic acid and dNTP mix (Applied Biosystems, Foster City, Calif.) and Superscript II (Invitrogen). Each PCR was carried out in triplicate in a 25-μl volume using SYBR Green Master mix (Applied Biosystems) for 15 min at 95° C. for initial denaturing, followed by 40 cycles of 95° C. for 30 s and 60° C. for 1 min in the ABI Prism 7700 sequence detection system (Applied Biosystems). The ABI Dissociation Curves software was used after a brief thermal protocol (95° C. 15 s and 60° C. 20 s, followed by a slow ramp to 95° C.) to control for multiple species in each PCR amplification. The comparative CT method was used for relative quantitation of samples. Values for each gene were normalized to expression levels of TATA-binding protein. Primers were purchased from Integrated DNA Technologies (Coralville, Iowa). The sequences of the primers used for reverse transcription-PCR were as follows: AR forward, 5′-GTA CCC TGG CGG CAT GGT-3′ [SEQ ID NO: 1] and AR reverse, 5′-CCCATTTCGCTTTTGACACA-3′ [SEQ ID NO: 2]; PSA forward, 5′-GCATTGAACCAGAGGAGTTCTTG-3′ [SEQ ID NO: 3] and PSA reverse, 5′-TTG CGC ACA CAC GTC ATT G-3′ [SEQ ID NO: 4]; and TATA-binding protein forward, 5′-TGCACAGGAGCCAAGAGTGAA-3′ [SEQ ID NO: 5] and reverse, 5′-CACATCACAGCTCCCCACCA-3′ [SEQ ID NO: 6].

[3] = test system: LNCaP human prostate carcinoma cells; assay: Cell proliferation assay in LNCaP cells; assay type: cell-based; details: 96 hr, read-out: IC50, inhibition of LNCaP cell growth
Procedure: Cell lines: LNCaP human prostate carcinoma cells were obtained from American Type Culture Collection (Manassas, Va.). Fetal bovine serum was obtained from JRH Biosciences, Lenexa, Kans. LNCaP cells were maintained in RPMI 1640 (Sigma Chemical, St. Louis, Mo.) supplemented with 0.22% sodium bicarbonate, 0.011% sodium pyruvate, 0.45% glucose, 0.24% HEPES, 10% FBS, and 10 mL/L of 100× antibiotic/antimycotic solution (Sigma). Cells were maintained at 37° C. in the presence of 5% CO2.
as §1

Q: Which “concentrations that decrease AR and PSA expression” value [1] does the source give for `COC(=O)[C@@]1(C)CC[C@]2(C)CC[C@]3(C)C(=CC(=O)[C@@H]4[C@@]5(C)C=C(C#N)C(=O)C(C)(C)[C@@H]5CC[C@]43C)[C@@H]2C1` [β-CDODA-Me, Methyl 2-cyano-3,11-dioxo-18β-oleana-1,12-dien-30-oate] here?
A: 1 to 2.5 µM

Q: And the “degradation of cyclin D1 after cotreatment with MG132” value [1]?
A: inhibited

Q: What about the “downregulation of AR, PSA and FKBP51 proteins after cotreatment with T007 or MG132” value [1] of the same compound?
A: not affected

Q: And the “induced proapoptotic responses after cotreatment with T007” value [1]?
A: not inhibited

Q: What about the “JNK (p-JNK), PI3K (p-Akt) and MAPK (p-Erk) pathways” value ([1]; 2.5 μM) of the same compound?
A: induces activation

Q: And the “decreased expression of AR, PSA and FKBP51 with kinase inhibitors” value ([1]; 2.5 μM)?
A: unaffected

Q: And the “induction of EGR-1, ATF-3 and NAG-1” value ([1]; 2.5 μM)?
A: time-dependent induction

Q: And the p-Erk activation ([1]; 2.5 μM)?
A: remained elevated for 24 hr

Q: And the “time of maximal activation of JNK” value ([1]; 2.5 μM)?
A: 8 h

Q: What about the “time of maximal activation of PI3K” value ([1]; 2.5 μM) of the same compound?
A: 8 to 12 h

Q: And the “AR, PSA and FKBP51 expression” value ([1]; 1-5 μM, presence or absence of 10 nM DHT)?
A: concentration-dependent decrease

Q: What about the “NAG-1 and ATF-3 proapoptotic proteins” value ([1]; 24 hr, 1-5 μM) of the same compound?
A: induced

Q: What about the “cyclin D1 proteins and Rb phosphorylation” value ([1]; 24 hr, 1-5 μM) of the same compound?
A: decrease

Q: What about the “p27 and p21 proteins” value ([1]; 24 hr, 1-5 μM) of the same compound?
A: concentration-dependent induction

Q: What about the “proapoptotic responses accompanying NAG-1/ATF-3 induction” value ([1]; 24 hr, 1-5 μM) of the same compound?
A: caspase-dependent PARP cleavage, DNA fragmentation, and decreased bcl2 expression

Q: What about the “time course of PARP cleavage, AR and Sp1” value ([1]; up to 24 hr) of the same compound?
A: time-dependent induction of PARP cleavage and a decrease of both AR and Sp1

Q: And the “AR mRNA effects in the presence of cycloheximide (10 μg/ml)” value [2]?
A: did not modulate

Q: And the “AR mRNA levels after cotreatment with T007” value [2]?
A: did not affect mRNA levels

Q: What about the “AR mRNA levels” value ([2]; 12 and 18 hr) of the same compound?
A: decreases AR mRNA levels

Q: And the IC50 [3]?
A: ~1000 nM

Q: What about the melting point of the same compound?
A: 243 to 245 °C
